# Test results reported in US8951563B2, “Antibiotic drug delivery and potentiation” (Technion Research & Development Foundation Limited, priority 2009, dated 2015).
# Tests used:
# [1] = Cochleate formation by light microscopy; assay type: physicochemical; set-up: key: or above (E!); excellent (E); good (G); poor (P); none (N)
# Description: Lipid films containing binary mixtures of lipids were made from aliquots of stock solutions in chloroform:methanol (2:1). The solvent was evaporated with a stream of nitrogen gas and the lipids deposited as a film on the walls of a glass tube. The tubes were then placed in a vacuum dessicator for 3 hours. The films were kept under Argon at −20° C. The lipid films were hydrated with buffer solutions of OAK polymers with extensive vortexing, so as to have a lipid to polymer molar ratio of […].
# Hydrated films were subjected to freeze thawing three times before imaging, to ensure proper equilibration of OAK with the multilamellar vesicles. A drop of this mixture was placed on a glass slide and covered with a glass coverslip. Light microscopy was carried out at room temperature using a Zeiss Axiovert 100M microscope with a Plan-Neofluar 100×/1.3 oil immersion objective. Images were analyzed with the Zeiss LSM image browser v2.8.
# The morphology of the samples of different OAKs and different lipid mixtures could be classified into the following categories.
# Table 5 presents the results of cochleate formation with different lipid mixtures of 1:10 lipid to polymer ratio, and a series of OAK polymers, indicated by their alternative denotations and SED ID Nos in parentheses. “Tm” denotes the melting temperature of the lipid bilayer afforded by the given lipid mixture. Some selected samples were further analyzed to confirm the results with freeze fracture electron microscopy for, as indicated in Table 5. Cochleate formation is defined as excellent (E) or above (E!), good (G), poor (P), or none (N) based on the aforementioned comparison, as well as on the abundance of cochleate structures observed in the light microscopy images. Lipid mixtures having a number in parenthesis are samples for which freeze-fracture electron microscopy analysis was conducted. Lipid mixtures having a “+” sign next to the number in parenthesis are samples which were confirmed by freeze-fracture electron microscopy as forming large cochleates with few vesicles and no inverted micellar (HII) morphology (samples 2, 3 and 5), or smaller cochleate structures mixed with other morphologies (samples 0 and 4). Lipid mixtures which contain only anionic lipids are marked with “^A”. Sample 0 is the lipid/OAK system used and presented in Example 1 hereinabove.
# [2] = Freeze fracture electron microscopy of cochleates
# [3] = tested on: E. coli AG100; assay: Bactericidal kinetics (time-kill); assay type: cell-based; conditions: sub-MIC concentrations, FIG. 2B
# Description: Bacteria were sampled at various time intervals, subjected to serial 10-fold dilutions, and plated onto LB-agar. Cell counts were determined using the drop plate method. Plates were incubated overnight at 37° C. and colonies were counted.
# [4] = tested on: E. coli AG100; assay: Ethidium bromide (EtBr) uptake assay; assay type: cell-based; conditions: bacteria in PBS, FIG. 2A
# Description: Cells were grown overnight in LB broth at 37° C. to an optical density of 1 (620 nm), washed twice in 200 μl PBS, and resuspended in the same buffer containing 0.5% glucose. […] Fluorescence was recorded by a BioTeK synergy HT Microplate Reader (excitation, 530 nm; emission, 645 nm).
# Ethidium bromide is known for its ability to spontaneously translocate across bacterial membranes and interact with nucleic acids, as can be evidenced by the increase in fluorescence signal.
# [5] = Molecular charge and RP-HPLC hydrophobicity of polymers; assay type: physicochemical; conditions: HPLC-RP gradient mobile phase
# Excerpt: Briefly, the polymers were synthesized while applying the Fmoc active ester chemistry on a fully automated, programmable peptide synthesizer (Applied Biosystems 433A). After cleavage from the resin, the crude product was extracted with 30% acetonitrile in water and purified by RP-HPLC (Alliance Waters), so as to obtain a chromatographic homogeneity higher than 95%. HPLC runs were typically performed on C18 columns (Vydac, 250 mm×4.6 or 10 mm) using a linear gradient of acetonitrile in water (1% per minute), both solvents containing 0.1% trifluoroacetic acid. The purified polymers were subjected to mass spectrometry (ZQ Waters) and NMR analyses to confirm their composition, and stored as a lyophilized powder at −20° C. Prior to being tested, fresh solutions were prepared in water, vortexed, sonicated, centrifuged and then diluted in the appropriate medium.
# “Q” represents the overall molecular charge at physiological pH; “ACN (%)” represents the percent of acetonitrile in the HPLC-RP gradient mobile phase at which the polymer was eluted and which corresponds to the estimated hydrophobicity of the polymer. The column headed by “Ref.” indicates prior reference of the OAK if present, wherein a number in parentheses “(##)” corresponds to the SEQ ID NO in U.S. Pat. No. 7,504,381; the letter “R” indicates a polymer published in Radzishevsky I. S. et al. (2008), Chem. Biol., 15(4), pp. 354-362; and “New” indicates a novel polymer disclosed herein.
# [6] = tested on: E. coli; assay type: cell-based
# Description: (§1) All bacteria were cultured in Luria-Bertani (LB) medium (10 g/l tryptone, 5 g/l yeast extract, 5 g/l NaCl, pH 7.4).
# (§2) Bacteria were grown overnight in LB growth medium and diluted 10,000-fold in same medium.
# (§3) Inhibition of proliferation was determined by optical density measurements (620 nm) after incubation overnight at 37° C.
# [7] = tested on: A. aureus; assay type: cell-based
# Description: as §1, §2, §3
# [8] = Maximal tolerated dose (MTD), single IV injection; conditions: mice, free OAK
# [9] = Encapsulation efficiency, liposome versus cochleate (MIC and fluorescamine methods); assay type: physicochemical
# [10] = tested on: four MDR clinical isolates of E. coli; assay type: cell-based
# Description: as §2, §3
# [11] = tested on: Klebsiella pneumoniae CI 1286; assay: Whole blood assay (stability and drug release); assay type: cell-based; conditions: whole human blood, 37° C., 4 and 40 multiples of the MIC, FIG. 4D
# Description: Stability and drug release rates were assessed using the human blood-resistant Klebsiella pneumoniae CI 1286. […] After the specified incubation periods (37° C.), aliquots were plated on LB agar as described above (Antibacterial assays) for CFU count.
# The stability of OAK-cochleate and OAK-liposome preparations in whole blood was compared by assessing antibacterial activity against the blood-resistant strain of Klebsiella pneumonia.
molecule,measurement,setting,value
"CCCCCCCCCCCC(=O)NC(CCCCN)C(=O)NCCCCCCCC(=O)NC(CCCCN)C(=O)NCCCCCCCC(=O)NC(CCCCN)C(=O)NCCCCCCCC(=O)NC(CCCCN)C(=O)NCCCCCCCC(=O)NC(CCCCN)C(=O)NCCCCCCCC(=O)NC(CCCCN)C(=O)NCCCCCCCC(=O)NC(CCCCN)C(=O)NCCCCCCCC(=O)NC(CCCCN)C(N)=O (stereo not drawn) [C12K-7α8, C12K(NC8K)7NH2]",Cochleate formation,"[1]; DMPC:TOCL 75:25, 1:10 lipid to polymer ratio",N
same,Cochleate formation,"[1]; DMPE:DOPG 75:25, 1:10 lipid to polymer ratio",E
same,Cochleate formation,"[1]; DMPE:TOCL 75:25, 1:10 lipid to polymer ratio",E
same,Cochleate formation,"[1]; DMPG:TOCL 75:25 (anionic lipids only), 1:10 lipid to polymer ratio",N
same,Cochleate formation,"[1]; DOPE:TOCL 75:25, 1:10 lipid to polymer ratio",P
same,Cochleate formation,"[1]; DPPE:TOCL 75:25, 1:10 lipid to polymer ratio",E
same,Cochleate formation,"[1]; POPC:TOCL 75:25, 1:10 lipid to polymer ratio",P
same,Cochleate formation,"[1]; POPE:DOPG 75:25, 1:10 lipid to polymer ratio",N
same,Cochleate formation,"[1]; POPE:DOPG:TOCL 80:15:5, 1:10 lipid to polymer ratio",N
same,Cochleate formation,"[1]; POPE:TOCL 50:50, lipid to polymer 10:1",poor cochleate former
same,Cochleate formation,"[1]; POPE:TOCL 75:25, 1:10 lipid to polymer ratio",G
same,Cochleate formation,"[1]; POPG:TOCL 75:25 (anionic lipids only), 1:10 lipid to polymer ratio",G
same,Cochleate formation,"[1]; TOCL alone, lipid to polymer 10:1",abundance of smaller liposomes
same,cochleate formation by freeze fracture electron microscopy,"[2]; DMPE:TOCL (75:25), DPPE:TOCL (75:25) or DMPE:DOPG (75:25)",strongly promoted the formation of large cochleates
same,Pre-formed and fully formed cochleate Length,"[2]; POPC:TOCL 75:25, 10:1 lipid to polymer",(1.8) μm
same,cochleate formation by freeze fracture electron microscopy,[2]; POPC:TOCL (75:25) or POPG:TOCL (75:25),weakly promoted cochleate formation
same,"time-kill, OAK alone",[3],significant bactericidal activity at sub-MIC concentrations
same,EtBr uptake (intracellular accumulation),[4],enhanced in a dose-dependent manner
same,"ACN (%) (percent acetonitrile at elution, estimated hydrophobicity)",[5],47.5%
same,MIC E. coli,[6],3.1 µM
same,MIC A. aureus,[7],50 µM
same,mortality,[8]; 10 mg/kg,33%
same,maximal tolerated dose (MTD),[8],~5 mg OAK/kg
same,OAK encapsulation efficiency in cochleates (OAK bound),[9]; cochleates (POPE:TOCL),> 80%
same,OAK encapsulation efficiency in liposomes,[9]; liposomes (PC:PEG2000),< 20%
same,OAK MIC,[10],6.9 µg/mL
C12K(NC8K)7NH2 [C12K-7α8],antibacterial activity / OAK release in whole blood,[11],maintained rapid bactericidal activity
